US20070128217A1 (priority 2003, published 2007)

Assays:
[1] = test system: antibodies in sera from SARS patients (sera 1a, 1b, 2, 6, 37, 62, London, SARS-yellow, SARS-green); format: binding, human; set-up: Binding of serum 6 to linear peptides of protein X1 of SARS-CoV Urbani / Binding of serum 37 to linear peptides of protein X1 of SARS-CoV Urbani / Binding of serum 6 to looped/cyclic peptide (PEPSCAN-ELISA) / Binding of serum 37 to looped/cyclic peptide (PEPSCAN-ELISA) / Binding of serum 37 to looped/cyclic peptides of protein X1 of SARS-CoV Urbani / Binding of serum 6 to linear peptides of protein X2 / Binding of serum 37 to linear peptides of protein X2 / Binding of serum 37 to looped/cyclic peptides of protein X2 of SARS-CoV Urbani / Binding of serum 6 to linear peptides of protein M of SARS-CoV Urbani / Binding of serum 37 to linear peptides of protein M of SARS-CoV Urbani / Binding of serum 6 to looped/cyclic peptides of protein M of SARS-CoV Urbani / Binding of serum 37 to looped/cyclic peptides of protein M of SARS-CoV Urbani / Binding of serum 6 to linear peptides of protein X3 of SARS-CoV Urbani / Binding of serum 37 to linear peptides of protein X3 of SARS-CoV Urbani / Binding of serum 37 to looped/cyclic peptides of protein X3 of SARS-CoV Urbani / Binding of serum 6 to linear peptides of protein X4 of SARS-CoV Urbani / Binding of serum 37 to linear peptides of protein X4 of SARS-CoV Urbani / Binding of serum 37 to looped/cyclic peptides of protein X4 of SARS-CoV Urbani / Binding of serum 6 to linear peptides of protein X5 of SARS-CoV Urbani / Binding of serum 37 to linear peptides of protein X5 of SARS-CoV Urbani / Binding of serum 37 to looped/cyclic peptides of protein X5 of SARS-CoV Urbani / Binding of serum 6 to linear peptides of protein N of SARS-CoV Urbani / Binding of serum 37 to linear peptides of protein N of SARS-CoV Urbani / Binding of serum 6 to linear peptide (PEPSCAN-ELISA) / Binding of serum 1a to looped/cyclic peptides of protein N of SARS-CoV Urbani / Binding of serum 1b to looped/cyclic peptides of protein N of SARS-CoV Urbani / Binding of serum 2 to looped/cyclic peptides of protein N of SARS-CoV Urbani / Binding of serum 6 to looped/cyclic peptides of protein N of SARS-CoV Urbani / Binding of serum 37 to looped/cyclic peptides of protein N of SARS-CoV Urbani / Binding of serum 62 to looped/cyclic peptides of protein N of SARS-CoV Urbani / Binding of serum London to looped/cyclic peptides of protein N of SARS-CoV Urbani / Binding of serum SARS-green to looped/cyclic peptides of protein N of SARS-CoV Urbani: unit not given here
[2] = test system: rabbit serum obtained by immunizing a rabbit with the SARS-CoV strain Frankfurt 1; format: binding; set-up: Binding of a rabbit serum to linear peptides / Binding of a rabbit serum to looped peptides / Rabbit serum linear peptides / Rabbit serum looped peptides / Binding of a rabbit serum to linear peptides of protein N of SARS-CoV Urbani (Rabbit serum linear peptides) / Binding of a rabbit serum to looped/cyclic peptides of protein N of SARS-CoV Urbani (Rabbit serum looped peptides): unit not given here
[3] = test system: control sera (pooled serum of ten healthy LUMC hospital workers; commercial negative donor pooled serum from the Dutch bloodbank); format: binding, human; set-up: Binding of Control serum LUMC to linear peptides / Binding of Control serum Blood-bank to linear peptides / Binding of Control serum LUMC to looped peptides / Binding of Control Serum Blood-Bank to Looped peptides / Binding of Control serum LUMC to linear peptides of the protein M of SARS-CoV Urbani / Binding of Control serum Blood-bank to linear peptides of the protein M of SARS-CoV Urbani / Binding of Control serum LUMC to looped peptides of the protein M of SARS-CoV Urbani / Binding of Control Serum Blood-Bank to Looped peptides of the protein M of SARS-CoV Urbani: unit not given here

With AGMEAQFLYLYALIY the “Binding of serum 1a to linear peptides of protein X1 of SARS-CoV Urbani” value [1] was 0.7, the “Binding of serum 1a to looped/cyclic peptide (PEPSCAN-ELISA)” value [1] was 0.5 and the “Binding of serum 1b to linear peptides of protein X1 of SARS-CoV Urbani” value [1] was 0.6. For the same sequence, the “Binding of serum 1b to looped/cyclic peptide (PEPSCAN-ELISA)” value [1] was 0.4, the “Binding of serum 2 to linear peptides of protein X1 of SARS-CoV Urbani” value [1] was 0.6 and the “Binding of serum 2 to looped/cyclic peptide (PEPSCAN-ELISA)” value [1] was 0.4. The “Binding of serum 6 to linear peptides of protein X1 of SARS-CoV Urbani” value [1] was 0.4, the “Binding of serum 6 to looped/cyclic peptide (PEPSCAN-ELISA)” value [1] was 0.3 and the “Binding of serum 37 to linear peptides of protein X1 of SARS-CoV Urbani” value [1] was 0.5. For the same sequence, the “Binding of serum 37 to looped/cyclic peptide (PEPSCAN-ELISA)” value [1] was 0.5, the “Binding of serum 62 to linear peptides of protein X1 of SARS-CoV Urbani” value [1] was 0.4 and the “Binding of serum 62 to looped/cyclic peptide (PEPSCAN-ELISA)” value [1] was 0.6. The “Binding of serum London to linear peptides of protein X1 of SARS-CoV Urbani” value [1] was 0.2, the “Binding of serum London to looped/cyclic peptide (PEPSCAN-ELISA)” value [1] was 0.2 and the “Binding of serum SARS-green to linear peptides of protein X1 of SARS-CoV Urbani” value [1] was 0.1. For the same sequence, the “Binding of serum SARS-green to looped/cyclic peptide (PEPSCAN-ELISA)” value [1] was 0.2, the “Binding of serum SARS-yellow to linear peptides of protein X1 of SARS-CoV Urbani” value [1] was 0.2 and the “Binding of serum SARS-yellow to looped/cyclic peptide (PEPSCAN-ELISA)” value [1] was 0.3. For the same sequence, the “Binding of a rabbit serum to linear peptides” value [2] was 0.1, the “Binding of a rabbit serum to looped peptides” value [2] was 0.6 and the “Binding of Control Serum Blood-Bank to Looped peptides” value [3] was 0.5. For the same sequence, the “Binding of Control serum Blood-bank to linear peptides” value [3] was 0.5, the “Binding of Control serum LUMC to linear peptides” value [3] was 0.6 and the “Binding of Control serum LUMC to looped peptides” value [3] was 0.6.
AIAMACIVGLMWLSY was tested, and the “Binding of serum 1a to linear peptides of protein M of SARS-CoV Urbani” value [1] was 0.7, the “Binding of serum 1a to looped/cyclic peptides of protein M of SARS-CoV Urbani” value [1] was 0.5 and the “Binding of serum 1b to linear peptides of protein M of SARS-CoV Urbani” value [1] was 0.5. For the same sequence, the “Binding of serum 1b to looped/cyclic peptides of protein M of SARS-CoV Urbani” value [1] was 0.3, the “Binding of serum 2 to linear peptides of protein M of SARS-CoV Urbani” value [1] was 0.6 and the “Binding of serum 2 to looped/cyclic peptides of protein M of SARS-CoV Urbani” value [1] was 0.4. The “Binding of serum 6 to linear peptides of protein M of SARS-CoV Urbani” value [1] was 0.4, the “Binding of serum 6 to looped/cyclic peptides of protein M of SARS-CoV Urbani” value [1] was 0.6 and the “Binding of serum 37 to linear peptides of protein M of SARS-CoV Urbani” value [1] was 0.7. For the same sequence, the “Binding of serum 37 to looped/cyclic peptides of protein M of SARS-CoV Urbani” value [1] was 0.5, the “Binding of serum 62 to linear peptides of protein M of SARS-CoV Urbani” value [1] was 0.7 and the “Binding of serum 62 to looped/cyclic peptides of protein M of SARS-CoV Urbani” value [1] was 0.4. The “Binding of serum London to linear peptides of protein M of SARS-CoV Urbani” value [1] was 0.4, the “Binding of serum London to looped/cyclic peptides of protein M of SARS-CoV Urbani” value [1] was 0.2 and the “Binding of serum SARS-green to linear peptides of protein M of SARS-CoV Urbani” value [1] was 0.3. The “Binding of serum SARS-green to looped/cyclic peptides of protein M of SARS-CoV Urbani” value [1] was 4.4, the “Binding of serum SARS-yellow to linear peptides of protein M of SARS-CoV Urbani” value [1] was 0.1 and the “Binding of serum SARS-yellow to looped/cyclic peptides of protein M of SARS-CoV Urbani” value [1] was 0.8. The “Rabbit serum linear peptides” value [2] was 0.4, the “Rabbit serum looped peptides” value [2] was 0.0 and the “Binding of Control Serum Blood-Bank to Looped peptides of the protein M of SARS-CoV Urbani” value [3] was 0.6. The “Binding of Control serum Blood-bank to linear peptides of the protein M of SARS-CoV Urbani” value [3] was 0.7, the “Binding of Control serum LUMC to linear peptides of the protein M of SARS-CoV Urbani” value [3] was 0.3 and the “Binding of Control serum LUMC to looped peptides of the protein M of SARS-CoV Urbani” value [3] was 0.6.
For ALGKVLPFHRWHTMV, the “Binding of serum 1a to linear peptides of protein X5 of SARS-CoV Urbani” value [1] was 0.9, the “Binding of serum 1a to looped/cyclic peptides of protein X5 of SARS-CoV Urbani” value [1] was 0.4 and the “Binding of serum 1b to linear peptides of protein X5 of SARS-CoV Urbani” value [1] was 0.5. For the same sequence, the “Binding of serum 1b to looped/cyclic peptides of protein X5 of SARS-CoV Urbani” value [1] was 0.0, the “Binding of serum 2 to linear peptides of protein X5 of SARS-CoV Urbani” value [1] was 0.7 and the “Binding of serum 2 to looped/cyclic peptides of protein X5 of SARS-CoV Urbani” value [1] was 0.6. For the same sequence, the “Binding of serum 6 to linear peptides of protein X5 of SARS-CoV Urbani” value [1] was 0.6, the “Binding of serum 6 to looped/cyclic peptides of protein X5 of SARS-CoV Urbani” value [1] was 0.3 and the “Binding of serum 37 to linear peptides of protein X5 of SARS-CoV Urbani” value [1] was 0.6. For the same sequence, the “Binding of serum 37 to looped/cyclic peptides of protein X5 of SARS-CoV Urbani” value [1] was 0.5, the “Binding of serum 62 to linear peptides of protein X5 of SARS-CoV Urbani” value [1] was 0.7 and the “Binding of serum 62 to looped/cyclic peptides of protein X5 of SARS-CoV Urbani” value [1] was 0.5. For the same sequence, the “Binding of serum London to linear peptides of protein X5 of SARS-CoV Urbani” value [1] was 0.7, the “Binding of serum London to looped/cyclic peptides of protein X5 of SARS-CoV Urbani” value [1] was 0.2 and the “Binding of serum SARS-green to linear peptides of protein X5 of SARS-CoV Urbani” value [1] was 0.5. For the same sequence, the “Binding of serum SARS-green to looped/cyclic peptides of protein X5 of SARS-CoV Urbani” value [1] was 0.6, the “Binding of serum SARS-yellow to linear peptides of protein X5 of SARS-CoV Urbani” value [1] was 0.2 and the “Binding of serum SARS-yellow to looped/cyclic peptides of protein X5 of SARS-CoV Urbani” value [1] was 0.1. The “Rabbit serum linear peptides” value [2] was 0.6, the “Rabbit serum looped peptides” value [2] was 0.1 and the “Binding of Control Serum Blood-Bank to Looped peptides” value [3] was 0.1. The “Binding of Control serum Blood-bank to linear peptides” value [3] was 0.8, the “Binding of Control serum LUMC to linear peptides” value [3] was 0.5 and the “Binding of Control serum LUMC to looped peptides” value [3] was 0.5.
ALQELLIQQWIQFMM was tested, and the “Binding of serum 1a to linear peptides of protein X2” value [1] was 0.7, the “Binding of serum 1a to looped/cyclic peptides of protein X2 of SARS-CoV Urbani” value [1] was 0.7 and the “Binding of serum 1b to linear peptides of protein X2” value [1] was 0.6. For the same sequence, the “Binding of serum 1b to looped/cyclic peptides of protein X2 of SARS-CoV Urbani” value [1] was 0.5, the “Binding of serum 2 to linear peptides of protein X2” value [1] was 0.4 and the “Binding of serum 2 to looped/cyclic peptides of protein X2 of SARS-CoV Urbani” value [1] was 0.4. For the same sequence, the “Binding of serum 6 to linear peptides of protein X2” value [1] was 0.4, the “Binding of serum 6 to looped/cyclic peptides of protein X2 of SARS-CoV Urbani” value [1] was 0.2 and the “Binding of serum 37 to linear peptides of protein X2” value [1] was 0.6. For the same sequence, the “Binding of serum 37 to looped/cyclic peptides of protein X2 of SARS-CoV Urbani” value [1] was 0.5, the “Binding of serum 62 to linear peptides of protein X2” value [1] was 0.6 and the “Binding of serum 62 to looped/cyclic peptides of protein X2 of SARS-CoV Urbani” value [1] was 0.7. The “Binding of serum London to linear peptides of protein X2” value [1] was 0.5, the “Binding of serum London to looped/cyclic peptides of protein X2 of SARS-CoV Urbani” value [1] was 0.2 and the “Binding of serum SARS-green to linear peptides of protein X2” value [1] was 0.7. For the same sequence, the “Binding of serum SARS-green to looped/cyclic peptides of protein X2 of SARS-CoV Urbani” value [1] was 0.4, the “Binding of serum SARS-yellow to linear peptides of protein X2” value [1] was 0.4 and the “Binding of serum SARS-yellow to looped/cyclic peptides of protein X2 of SARS-CoV Urbani” value [1] was 0.5. The “Binding of a rabbit serum to linear peptides” value [2] was 0.2, the “Binding of a rabbit serum to looped peptides” value [2] was 0.4 and the “Binding of Control Serum Blood-Bank to Looped peptides” value [3] was 0.7. For the same sequence, the “Binding of Control serum Blood-bank to linear peptides” value [3] was 0.5, the “Binding of Control serum LUMC to linear peptides” value [3] was 0.4 and the “Binding of Control serum LUMC to looped peptides” value [3] was 0.7.
